In general, IC50 refers to the concentration that gives 50% inhibition. A word on the half-life: it is the time in which the quantity being followed falls by half.

The source made the active and inactive calls. The calls are words filed in the database; no cut-off is given here. *1 amine or outer side, *2 acyl side, *3 side chain or, on linkers, in order; H or OH if unused. Where a SMILES comes first, the peptide text is derived from it. Bridges are numbered along the chain shown (N, C = ends). Biphenyl(4,4'-CH2)2 = c1cc(-c2ccc(C[*:2])cc2)ccc1C[*:1]; mXylylene = c1cc(C[*:1])cc(C[*:2])c1; oXylylene = c1ccc(C[*:2])c(C[*:1])c1; pXylylene = c1cc(C[*:2])ccc1C[*:1]

For data set [1], the system named is MCF7. The experiment in a line: Anti-cancer activity against human MCF7 assessed as cell viability incubated for 48 hrs by CCK-8 assay. The class given is functional, cell-based. The settings on record: MCF7, 48 h. Background: Tetrazolium assays rely on reduction of a dye to a coloured formazan, in cell work by metabolically active cells.
For the next data set, the system named is U-87 MG. The experiment in a line: Anti-cancer activity against human U-87 MG assessed as cell viability incubated for 48 hrs by CCK-8 assay. The format is functional, cell-based, U-87MG ATCC.
In a further data set the test system is HCT-116. The experiment in a line: Anti-cancer activity against human HCT-116 assessed as cell viability incubated for 48 hrs by CCK-8 assay. The settings on record: HCT-116, 48 h. The format is functional, cell-based.
Data set [2] is described as follows: Stability of a compound in human serum assessed as half life at 91 mg/mL incubated for 0 to 144 hrs by HPLC-UV analysis. The format is ADME, cell-free. The settings on record: time 0-144 hrs.
Data set [3] relates to MCF7. Nature of the data set: Induction of cell death in human MCF7 cells assessed as reduction in number of viable cells at 10 uM incubated for 24 hrs by calcein-AM/PI staining based analysis. The class given is functional.
The test system of data set [4] is MCF7. The experiment in a line: Induction of apoptosis in human MCF7 cells assessed as late apoptotic cells at 5 uM incubated for 24 hrs by Annexin V-FITC/PI staining based flow cytometry analysis (reference value: 3.54%). The class given is functional. A general note: In flow cytometry, cells or beads pass a laser one at a time.
The test system of data set [5] is MCF7. Nature of the data set: Inhibition of cell migration in human MCF7 cells at 5 uM incubated for 24 hrs by scratch wound healing assay. The format is functional, cell-based.
The subject of data set [6] is MCF7. Nature of the data set: Induction of apoptosis in human MCF7 cells assessed as necrotic cells at 5 uM incubated for 24 hrs by Annexin V-FITC/PI staining based flow cytometry analysis (reference value: 1.94%). The format is functional.
Data set [7] concerns MCF7. The experiment in a line: Induction of apoptosis in human MCF7 cells assessed as viable cells at 5 uM incubated for 24 hrs by Annexin V-FITC/PI staining based flow cytometry analysis (reference value: 93.51%). The class given is functional. The settings on record: read-out: Activity.
Data set [8] has as its system MCF7. Nature of the data set: Induction of apoptosis in human MCF7 cells assessed as early apoptotic cells at 5 uM incubated for 24 hrs by Annexin V-FITC/PI staining based flow cytometry analysis (reference value: 1.01%). The class given is functional.
For data set [9], the system named is MCF7. Nature of the data set: Inhibition of cell migration in human MCF7 cells at 5 uM incubated for 36 hrs by crystal violet staining based microscopy analysis. The class given is functional.

On to `CC[C@H](C)[C@H](NC(=O)[C@@H](NC(=O)[C@H](CO)NC(=O)[C@H](C)NC(=O)[C@@H](NC(=O)[C@H](CCCCN)NC(=O)[C@H](CCCCN)NC(=O)[C@@H]1CSCc2ccccc2CSC[C@H](NC(=O)CNC(C)=O)C(=O)N[C@@H](Cc2ccccc2)C(=O)N[C@@H](C)C(=O)N[C@@H](C(C)C)C(=O)N1)C(C)C)C(C)C)C(=O)N[C@@H](CCCCN)C(=O)NCC(=O)N[C@@H](CC(C)C)C(N)=O` (Ac-GCFAVCKKVASVIKGL-NH2; linker 2-6 via oXylylene), for which the IC50 in the data set with MCF7 [1] is 12.5 µM; in the data set with U-87 MG, 11.4 µM; in the data set on HCT-116, 13.9 µM.
On the same counts, the results for `CC[C@H](C)[C@H](NC(=O)[C@@H](NC(=O)[C@H](CO)NC(=O)[C@@H]1CSCc2ccc(cc2)CSC[C@H](NC(=O)[C@@H](NC(=O)[C@H](C)NC(=O)[C@H](Cc2ccccc2)NC(=O)[C@H](CC(C)C)NC(=O)CNC(C)=O)C(C)C)C(=O)N[C@@H](CCCCN)C(=O)N[C@@H](CCCCN)C(=O)N[C@@H](C(C)C)C(=O)N1)C(C)C)C(=O)N[C@@H](CCCCN)C(=O)NCC(=O)N[C@@H](CC(C)C)C(N)=O` (Ac-GLFAVCKKVCSVIKGL-NH2; linker 6-10 via pXylylene) are 15.7 µM, 15.6 µM and 13.4 µM.
In the case of `CC[C@H](C)[C@H](NC(=O)[C@@H](NC(=O)[C@H](CO)NC(=O)[C@H](C)NC(=O)[C@@H](NC(=O)[C@H](CCCCN)NC(=O)[C@H](CCCCN)NC(=O)[C@@H]1CSCc2ccc(cc2)CSC[C@H](NC(=O)CNC(C)=O)C(=O)N[C@@H](Cc2ccccc2)C(=O)N[C@@H](C)C(=O)N[C@@H](C(C)C)C(=O)N1)C(C)C)C(C)C)C(=O)N[C@@H](CCCCN)C(=O)NCC(=O)N[C@@H](CC(C)C)C(N)=O` (Ac-GCFAVCKKVASVIKGL-NH2; linker 2-6 via pXylylene), the IC50 with MCF7 [1] turned out to be 54.1 µM; in the data set with U-87 MG, 53 µM; in the data set on HCT-116, 230 µM.
Consider `CC[C@H](C)[C@H](NC(=O)[C@@H](NC(=O)[C@H](C)NC(=O)[C@H](Cc1ccccc1)NC(=O)[C@H](CC(C)C)NC(=O)CNC(C)=O)C(C)C)C(=O)N[C@@H](CCCCN)C(=O)N[C@@H](CCCCN)C(=O)N[C@H]1CSCc2ccc(cc2)CSC[C@@H](C(=O)N[C@@H](CCCCN)C(=O)NCC(=O)N[C@@H](CC(C)C)C(N)=O)NC(=O)[C@H](C(C)C)NC(=O)[C@H](CO)NC(=O)[C@H](C)NC1=O` (Ac-GLFAVIKKCASVCKGL-NH2; linker 9-13 via pXylylene), for which the IC50 with MCF7 [1] stood at 32.1 µM; with U-87 MG, 25.9 µM; with HCT-116 it was 114 µM.
On to `CC[C@H](C)[C@@H]1NC(=O)[C@@H](NC(=O)[C@H](C)NC(=O)[C@H](Cc2ccccc2)NC(=O)[C@H](CC(C)C)NC(=O)CNC(C)=O)CSCc2ccc(cc2)CSC[C@@H](C(=O)N[C@@H](C)C(=O)N[C@@H](CO)C(=O)N[C@H](C(=O)N[C@H](C(=O)N[C@@H](CCCCN)C(=O)NCC(=O)N[C@@H](CC(C)C)C(N)=O)[C@@H](C)CC)C(C)C)NC(=O)[C@H](CCCCN)NC(=O)[C@H](CCCCN)NC1=O` (Ac-GLFACIKKCASVIKGL-NH2; linker 5-9 via pXylylene), for which the figures for the IC50 in the data set with MCF7 [1], in the data set on U-87 MG and with HCT-116 were 11.8 µM, 12.8 µM and 12.9 µM, respectively.
In the case of `CC[C@H](C)[C@H](NC(=O)[C@@H](NC(=O)[C@H](CO)NC(=O)[C@@H]1CSCc2cccc(c2)CSC[C@H](NC(=O)[C@@H](NC(=O)[C@H](C)NC(=O)[C@H](Cc2ccccc2)NC(=O)[C@H](CC(C)C)NC(=O)CNC(C)=O)C(C)C)C(=O)N[C@@H](CCCCN)C(=O)N[C@@H](CCCCN)C(=O)N[C@@H](C(C)C)C(=O)N1)C(C)C)C(=O)N[C@@H](CCCCN)C(=O)NCC(=O)N[C@@H](CC(C)C)C(N)=O` (Ac-GLFAVCKKVCSVIKGL-NH2; linker 6-10 via mXylylene), the results for the IC50 in the data set on MCF7 [1], in the data set on U-87 MG and with HCT-116 were 13.6 µM, 14.3 µM and 10.6 µM, respectively.
Taken in the same sequence, the figures for `CC[C@H](C)[C@H](NC(=O)[C@@H](NC(=O)[C@H](CO)NC(=O)[C@H](C)NC(=O)[C@@H](NC(=O)[C@H](CCCCN)NC(=O)[C@H](CCCCN)NC(=O)[C@@H]1CSCc2cccc(c2)CSC[C@H](NC(=O)CNC(C)=O)C(=O)N[C@@H](Cc2ccccc2)C(=O)N[C@@H](C)C(=O)N[C@@H](C(C)C)C(=O)N1)C(C)C)C(C)C)C(=O)N[C@@H](CCCCN)C(=O)NCC(=O)N[C@@H](CC(C)C)C(N)=O` (Ac-GCFAVCKKVASVIKGL-NH2; linker 2-6 via mXylylene) were 54.7 µM, 57.8 µM and 106 µM.
Taken in the same sequence, the figures for `CC[C@H](C)[C@H](NC(=O)[C@@H](NC(=O)[C@H](C)NC(=O)[C@H](Cc1ccccc1)NC(=O)[C@H](CC(C)C)NC(=O)CNC(C)=O)C(C)C)C(=O)N[C@@H](CCCCN)C(=O)N[C@@H](CCCCN)C(=O)N[C@H]1CSCc2cccc(c2)CSC[C@@H](C(=O)N[C@@H](CCCCN)C(=O)NCC(=O)N[C@@H](CC(C)C)C(N)=O)NC(=O)[C@H](C(C)C)NC(=O)[C@H](CO)NC(=O)[C@H](C)NC1=O` (Ac-GLFAVIKKCASVCKGL-NH2; linker 9-13 via mXylylene) were 8.34 µM, 10.7 µM and 11 µM.
Consider `CC[C@H](C)[C@@H]1NC(=O)[C@@H](NC(=O)[C@H](C)NC(=O)[C@H](Cc2ccccc2)NC(=O)[C@H](CC(C)C)NC(=O)CNC(C)=O)CSCc2ccccc2CSC[C@@H](C(=O)N[C@@H](C)C(=O)N[C@@H](CO)C(=O)N[C@H](C(=O)N[C@H](C(=O)N[C@@H](CCCCN)C(=O)NCC(=O)N[C@@H](CC(C)C)C(N)=O)[C@@H](C)CC)C(C)C)NC(=O)[C@H](CCCCN)NC(=O)[C@H](CCCCN)NC1=O` (Ac-GLFACIKKCASVIKGL-NH2; linker 5-9 via oXylylene), for which the half-life at 91 mg/mL in data set [2] was 143 h. In addition, the result in the data set with MCF7 [3], with MCF7 [5] and in the data set with MCF7 [9] was Active. In addition, the Activity in the data set with MCF7 [4] worked out at 75.52%; in the data set with MCF7 [6], 1.35%; in the data set with MCF7 [8], 22.39%. Further, the figures for the 50% inhibitory concentration (IC50) with MCF7 [1], in the data set with U-87 MG and in the data set with HCT-116 were 2.75 µM, 2.8 µM and 5.04 µM, respectively. In the data set on MCF7 [7], the viability at 5 µM stood at 1.1%.
In the case of `CC[C@H](C)[C@H](NC(=O)[C@@H](NC(=O)[C@H](C)NC(=O)[C@H](Cc1ccccc1)NC(=O)[C@H](CC(C)C)NC(=O)CNC(C)=O)C(C)C)C(=O)N[C@@H](CCCCN)C(=O)N[C@@H](CCCCN)C(=O)N[C@H]1CSCc2ccccc2CSC[C@@H](C(=O)N[C@@H](CCCCN)C(=O)NCC(=O)N[C@@H](CC(C)C)C(N)=O)NC(=O)[C@H](C(C)C)NC(=O)[C@H](CO)NC(=O)[C@H](C)NC1=O` (Ac-GLFAVIKKCASVCKGL-NH2; linker 9-13 via oXylylene), the IC50 was 8.68 µM with MCF7 [1], 8.42 µM with U-87 MG and 7.94 µM in the data set with HCT-116.
On the same counts, the results for `CC(=O)NCC(=O)N[C@@H](CC(C)C)C(=O)N[C@@H](Cc1ccccc1)C(=O)N[C@@H](C)C(=O)N[C@H](C(=O)N[C@H]1CSCc2ccc(cc2)-c2ccc(cc2)CSC[C@@H](C(=O)N[C@@H](CCCCN)C(=O)NCC(=O)N[C@@H](CC(C)C)C(N)=O)NC(=O)[C@H](C(C)C)NC(=O)[C@H](CO)NC(=O)[C@H](C)NC(=O)[C@H](C(C)C)NC(=O)[C@H](CCCCN)NC(=O)[C@H](CCCCN)NC1=O)C(C)C` (Ac-GLFAVCKKVASVCKGL-NH2; linker 6-13 via Biphenyl(4,4'-CH2)2) are 7.47 µM, 9.2 µM and 7.44 µM.
As for `CC[C@H](C)[C@@H]1NC(=O)[C@@H](NC(=O)[C@H](C)NC(=O)[C@H](Cc2ccccc2)NC(=O)[C@H](CC(C)C)NC(=O)CNC(C)=O)CSCc2cccc(c2)CSC[C@@H](C(=O)N[C@@H](C)C(=O)N[C@@H](CO)C(=O)N[C@H](C(=O)N[C@H](C(=O)N[C@@H](CCCCN)C(=O)NCC(=O)N[C@@H](CC(C)C)C(N)=O)[C@@H](C)CC)C(C)C)NC(=O)[C@H](CCCCN)NC(=O)[C@H](CCCCN)NC1=O` (Ac-GLFACIKKCASVIKGL-NH2; linker 5-9 via mXylylene), the IC50 in the data set on MCF7 [1] was found to be 9.25 µM; with U-87 MG it was 11.8 µM; with HCT-116 it was 8.23 µM.
Take `CC[C@H](C)[C@H](NC(=O)[C@@H](NC(=O)[C@H](CO)NC(=O)[C@@H]1CSCc2ccccc2CSC[C@H](NC(=O)[C@@H](NC(=O)[C@H](C)NC(=O)[C@H](Cc2ccccc2)NC(=O)[C@H](CC(C)C)NC(=O)CNC(C)=O)C(C)C)C(=O)N[C@@H](CCCCN)C(=O)N[C@@H](CCCCN)C(=O)N[C@@H](C(C)C)C(=O)N1)C(C)C)C(=O)N[C@@H](CCCCN)C(=O)NCC(=O)N[C@@H](CC(C)C)C(N)=O` (Ac-GLFAVCKKVCSVIKGL-NH2; linker 6-10 via oXylylene): the half-life at 91 mg/mL in [2] was 143 h. Also, the result in the data set on MCF7 [3], with MCF7 [5] and in the data set with MCF7 [9] was Active. Moreover, the results for the Activity in the data set on MCF7 [4], in the data set with MCF7 [6] and with MCF7 [8] were 37.02%, 3.9% and 15.92%, respectively. Also, the IC50 in the data set on MCF7 [1] was 6.58 µM; with U-87 MG, 6.27 µM; in the data set on HCT-116, 5.86 µM. For the same molecule, the viability at 5 µM in the data set with MCF7 [7] stood at 43.2%.

Source of the values: ChEMBL document CHEMBL5390219, “Benzyl stapled modification and anticancer activity of antimicrobial peptide A4K14-Citropin 1.1” (Bioorg Med Chem Lett, 2023).
